Molecular target: T1, Rv0888 (Mycobacterium tuberculosis, UniProt P9WKQ1)
T1 construct: gene spmT
Test: DNase inhibition, circular plasmid DNA, agarose gel and A260 spectrophotometry
Type: biochemical
Conditions: pH 6.5, 5 mM CaCl2, 5 mM MnCl2, 41 °C, 1 h

T1 sequence (P9WKQ1 32-490 limits assumed): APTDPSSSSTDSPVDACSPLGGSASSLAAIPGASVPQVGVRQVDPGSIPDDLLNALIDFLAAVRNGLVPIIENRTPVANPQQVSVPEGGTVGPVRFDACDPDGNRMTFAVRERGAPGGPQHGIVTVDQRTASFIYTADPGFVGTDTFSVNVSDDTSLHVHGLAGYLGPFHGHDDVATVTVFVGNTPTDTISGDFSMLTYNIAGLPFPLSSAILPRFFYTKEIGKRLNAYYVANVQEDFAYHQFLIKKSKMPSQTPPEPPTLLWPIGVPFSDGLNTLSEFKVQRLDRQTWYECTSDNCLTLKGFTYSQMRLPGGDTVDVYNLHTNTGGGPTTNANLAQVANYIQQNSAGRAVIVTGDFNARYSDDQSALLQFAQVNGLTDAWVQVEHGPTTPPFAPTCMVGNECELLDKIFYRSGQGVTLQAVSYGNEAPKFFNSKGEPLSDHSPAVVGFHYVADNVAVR

| SMILES | relative DNase activity at 0.5, 1, 2 mM |
| --- | --- |
| CCCCC[C@H](O)CC(=O)CCc1ccc(O)c(OC)c1 [6-Gingerol] | inhibited by four Chinese medicine monomers (Oleuropein, 6-Gingerol, Corylifolinin and Acteoside) |
| C[C@@H]1O[C@@H](O[C@@H]2[C@@H](O)[C@H](OCCc3ccc(O)c(O)c3)O[C@H](CO)[C@H]2OC(=O)/C=C/c2ccc(O)c(O)c2)[C@H](O)[C@H](O)[C@H]1O [Acteoside] | inhibited by four Chinese medicine monomers (Oleuropein, 6-Gingerol, Corylifolinin and Acteoside) |
| CC(C)=CCc1c(O)ccc(C(=O)/C=C/c2ccc(O)cc2)c1O [Corylifolinin] | inhibited by four Chinese medicine monomers (Oleuropein, 6-Gingerol, Corylifolinin and Acteoside) |
| C/C=C1/[C@H](O[C@@H]2O[C@H](CO)[C@@H](O)[C@H](O)[C@H]2O)OC=C(C(=O)OC)[C@H]1CC(=O)OCCc1ccc(O)c(O)c1 [Oleuropein] | inhibited by four Chinese medicine monomers (Oleuropein, 6-Gingerol, Corylifolinin and Acteoside) |
